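Growth conditions: 96-well plates. Treatment: test compound, 48 hours, 5 concentrations. Analysis: linear interpolation between bracketing concentrations; unreached endpoints set to highest concentration. The concentration for full growth arrest is given as TGI.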
Tests used:
Experiment in all cases: inhibition of tumour cell growth, NCI panel, 48 h
786-0 renal = system: 786-0 renal
A549 NSCLC = system: A549 NSCLC
BT-549 breast = system: BT-549 breast
CAKI-1 renal = system: CAKI-1 renal
CCRF-CEM leukemia = system: CCRF-CEM leukemia
COLO 205 colon = system: COLO 205 colon
DU-145 prostate = system: DU-145 prostate
EKVX NSCLC = system: EKVX NSCLC
HCC-2998 colon = system: HCC-2998 colon
HCT-116 colon = system: HCT-116 colon
HCT-15 colon = system: HCT-15 colon
HL-60(TB) leukemia = system: HL-60(TB) leukemia
HOP-62 NSCLC = system: HOP-62 NSCLC
HS 578T breast = system: HS 578T breast
HT29 colon = system: HT29 colon
IGROV1 ovarian = system: IGROV1 ovarian
K-562 leukemia = system: K-562 leukemia
KM12 colon = system: KM12 colon
LOX IMVI melanoma = system: LOX IMVI melanoma
M14 melanoma = system: M14 melanoma
MALME-3M melanoma = system: MALME-3M melanoma
MCF7 breast = system: MCF7 breast
MDA-MB-231 breast = system: MDA-MB-231 breast
MDA-MB-435 = system: MDA-MB-435
MDA-N = system: MDA-N
MOLT-4 leukemia = system: MOLT-4 leukemia
NCI-H226 lung = system: NCI-H226 lung
NCI-H23 lung = system: NCI-H23 lung
NCI-H460 lung = system: NCI-H460 lung
NCI-H522 lung = system: NCI-H522 lung
NCI/ADR-RES ovarian = system: NCI/ADR-RES ovarian
OVCAR-3 ovarian = system: OVCAR-3 ovarian
OVCAR-4 ovarian = system: OVCAR-4 ovarian
OVCAR-8 ovarian = system: OVCAR-8 ovarian
PC-3 prostate = system: PC-3 prostate
RPMI-8226 leukemia = system: RPMI-8226 leukemia
RXF 393 renal = system: RXF 393 renal
SF-268 CNS = system: SF-268 CNS
SF-295 CNS = system: SF-295 CNS
SF-539 CNS = system: SF-539 CNS
SK-MEL-2 melanoma = system: SK-MEL-2 melanoma
SK-MEL-28 melanoma = system: SK-MEL-28 melanoma
SK-MEL-5 melanoma = system: SK-MEL-5 melanoma
SK-OV-3 ovarian = system: SK-OV-3 ovarian
SN12C renal = system: SN12C renal
SNB-19 CNS = system: SNB-19 CNS
SNB-75 CNS = system: SNB-75 CNS
SR leukemia = system: SR leukemia
SW-620 colon = system: SW-620 colon
T-47D breast = system: T-47D breast
TK-10 renal = system: TK-10 renal
U251 CNS = system: U251 CNS
UACC-257 melanoma = system: UACC-257 melanoma
UACC-62 melanoma = system: UACC-62 melanoma
UO-31 renal = system: UO-31 renal

Compound: N#Cc1sc2c(c1OC(=O)c1ccco1)c(=O)n(-c1ccccc1)c(=S)n2-c1ccccc1
- TGI (786-0 renal): > 100 µM
- TGI (A549 NSCLC): > 100 µM
- TGI (BT-549 breast): > 100 µM
- TGI (CAKI-1 renal): > 100 µM
- TGI (CCRF-CEM leukemia): > 10 µM
- TGI (COLO 205 colon): 61.5 µM
- TGI (DU-145 prostate): > 100 µM
- TGI (EKVX NSCLC): > 100 µM
- TGI (HCC-2998 colon): > 100 µM
- TGI (HCT-116 colon): 41.6 µM
- TGI (HCT-15 colon): 52.4 µM
- TGI (HL-60(TB) leukemia): > 100 µM
- TGI (HOP-62 NSCLC): > 100 µM
- TGI (HS 578T breast): > 100 µM
- TGI (HT29 colon): > 100 µM
- TGI (IGROV1 ovarian): > 10 µM
- TGI (K-562 leukemia): 96 µM
- TGI (KM12 colon): > 100 µM
- TGI (LOX IMVI melanoma): 45.6 µM
- TGI (M14 melanoma): 73.3 µM
- TGI (MALME-3M melanoma): 58.2 µM
- TGI (MCF7 breast): > 100 µM
- TGI (MDA-MB-231 breast): 73.8 µM
- TGI (MDA-MB-435): 84.4 µM
- TGI (MDA-N): 47.1 µM
- TGI (MOLT-4 leukemia): 43.4 µM
- TGI (NCI-H226 lung): > 100 µM
- TGI (NCI-H23 lung): > 100 µM
- TGI (NCI-H460 lung): > 100 µM
- TGI (NCI-H522 lung): 64.4 µM
- TGI (NCI/ADR-RES ovarian): 82 µM
- TGI (OVCAR-3 ovarian): 75.5 µM
- TGI (OVCAR-4 ovarian): 81.2 µM
- TGI (OVCAR-8 ovarian): > 100 µM
- TGI (PC-3 prostate): > 100 µM
- TGI (RPMI-8226 leukemia): 59.3 µM
- TGI (RXF 393 renal): 69.6 µM
- TGI (SF-268 CNS): > 100 µM
- TGI (SF-295 CNS): > 100 µM
- TGI (SF-539 CNS): 52.7 µM
- TGI (SK-MEL-2 melanoma): 84.2 µM
- TGI (SK-MEL-28 melanoma): > 100 µM
- TGI (SK-MEL-5 melanoma): 33.7 µM
- TGI (SK-OV-3 ovarian): > 100 µM
- TGI (SN12C renal): > 100 µM
- TGI (SNB-19 CNS): > 100 µM
- TGI (SNB-75 CNS): 84.5 µM
- TGI (SR leukemia): > 10 µM
- TGI (SW-620 colon): > 100 µM
- TGI (T-47D breast): 77.5 µM
- TGI (TK-10 renal): > 100 µM
- TGI (U251 CNS): 80.9 µM
- TGI (UACC-257 melanoma): > 100 µM
- TGI (UACC-62 melanoma): 34.1 µM
- TGI (UO-31 renal): 44.1 µM
